Assay results published in patent US20240076626A1, “HYDROGEN PEROXIDE EVOLVED HOST CELL” (MedImmune Limited, priority 2020, published 2024).

Experiments:
H2O2 evolved host cells [1] = assay: ChemStress assay, survival with prooxidant chemical compounds (PrestoBlue); format: cell-based, Chinese hamster; settings: 72 hours growth in the presence of the stressor
Method: To confirm the H2O2 evolved host cell's ability to resist oxidative stress, the cells were evaluated for survival in response to several prooxidant chemical compounds selected to mimic bioreactor stressors: […] These chemicals affect a diverse subset of intracellular redox pathways such as those involved in GSH biosynthesis and turnover (BSO and MS) (Lee et al. (1992) “Effects of buthionine sulfoximine treatment on cellular glutathione levels and cytotoxicities of cisplatin, carboplatin and radiation in human stomach and ovarian cancer cell lines”. Korean J Intern Med. 7(2):111-7; Dunning et al. (2013) “Glutathione and antioxidant enzymes serve complementary roles in protecting activated hepatic stellate cells against hydrogen peroxide-induced cell death”. Biochim Biophys Acta. 1832(12):2027-34), intracellular ROS generation (MSB) (Beck et al. (2011) “Ascorbate/menadione-induced oxidative stress kills cancer cells that express normal or mutated forms of the oncogenic protein Bcr-Abl. An in vitro and in vivo mechanistic study”. […] J Neurosci Res. 64(6):646-53). Chem stress assays were performed according to the manufacturer's instructions (ChemStress®, […], Ireland). In brief, CHO or H2O2 evolved host cells were seeded into […] ChemStress plates (ChemStress®, […], Ireland) at 18,000 cells/well in 90 μl proprietary medium supplemented with 6 mM L-glutamine. A control well was incubated with medium alone. Plates were incubated for 72-hours in a static incubator at 36.5° C., 6% CO2. Following this, 10 μl of neat PrestoBlue dye (Thermo Fisher Scientific, UK) was added to all wells before plates were mixed for 20 seconds and incubated for a further 30 minutes at 36.5° C., 6% CO2. Plates were analyzed using a PHERAstar plate reader (BMG LABTECH, Ortenberg, Germany) with preconfigured protocols (excitation 560 nm, emission 590 nm). Data was analyzed, using the […] software ([…], Ireland).

H2O2 evolved host cells [2] = assay: cells; settings: Cricetulus griseus
Method: The H2O2 evolved host and CHO control host were passaged to 90 PDL and 7 PDL respectively in CD-CHO supplemented with 6 mM glutamine after which both hosts were re-challenged with 37 mM H2O2 and viabilities recorded (viability measured on days 1, 2, 4, 7, 10, 11 and 12)
Specifically, CHO-K1 cells adapted to grow in suspension culture (CHO Control) were revived in chemically-defined (CD) CHO medium (Life technologies, Paisley, UK) supplemented with 6 mM L-glutamine (Life technologies, Paisley, UK) and passaged three times at 0.2×10^6 cells/ml in a 30 ml culture volume. When cells reached 99% viability, they were incubated for 1 hour with 14 mM H2O2 (Sigma-Aldrich, UK) before centrifugation at 130 g for 5 minutes and resuspended in 30 ml fresh CD CHO supplemented with 6 mM L-glutamine. CHO cells were left to recover until cells reached 70% viability. This process was repeated an additional three times resulting in a total of four exposures to 14 mM H2O2, in which cells gradually recovered over a period of 10-20 days, with the medium being replenished periodically, until cells reached 70% viability. The cells were then subjected to one round of 18.5 mM H2O2 treatment following the method above until cells reached 90% viability. […]

H2O2 evolved host A = assay: Survival of BisAb-expressing pools in the presence of MSB (Vi-Cell viability); format: cell-based, Chinese hamster; settings: 6 μM MSB, up to 72 hours, cells expressing BisAb A, versus H2O treated control
Method: (§1) Expressing pools were compared for survival in the presence of the widely used prooxidant, menadione sodium bisulphite (MSB). Briefly, CHO Control or H2O2 evolved host cells expressing BisAbs A or BisAb B were seeded at 0.3×10^6 cells/ml into 30 ml of proprietary medium supplemented with 50 μM MSX. A total of 6 μM Menadione Sodium Bisulfite (MSB) (Sigma-Aldrich, UK) or water was added to test and control cultures, respectively. Cells were assessed for viability and viable cell density (VCD) using a Vi-Cell XR Cell Viability Analyser (Beckman Coulter, USA) at 24, 48 and 72 hours post addition of MSB or water.

H2O2 evolved host B = assay: as above; format: cell-based, Chinese hamster; settings: 6 μM MSB, up to 72 hours, cells expressing BisAb B, versus H2O treated control
Method: as §1

Row | SMILES | viability of H2O2 evolved host cells compared to CHO control cells (H2O2 evolved host cells [1]) | viability at 37000 µM (H2O2 evolved host cells [2]) | viability (H2O2 evolved host A) | viability (H2O2 evolved host B)
1 | CCCCS(=N)(=O)CCC(N)C(=O)O (stereo not shown) [BSO, Buthionine Sulfoximine] | significantly improved viabilities | – | – | –
2 | [Cl][Co][Cl] [CoCl, Cobalt chloride] | significantly improved viabilities | – | – | –
3 | OO [H2O2, hydrogen peroxide] | – | ~50% | – | –
4 | O=C(O)CC(S)C(=O)O (stereo not shown) [MS, Mercaptosuccinic Acid] | significantly improved viabilities | – | – | –
5 | CC1(S(=O)(=O)[O-])CC(=O)c2ccccc2C1=O.[Na+] (stereo not shown) [MSB, Menadione Sodium Bisulphite] | significantly improved viabilities | – | comparable with H2O treated controls | comparable with H2O treated controls
